From article PMC10307035, “Antiviral activity of singlet oxygen-photogenerating perylene compounds against SARS-CoV-2: Interaction with the viral envelope and photodynamic virion inactivation” (Virus Research, 2023)

How the values were obtained:
[1] = ROS generation rate / quantum yield, DPBF bleaching in methanol; format: physicochemical; settings: for φROS (ROS generation quantum yield): in methanol, DPBF trap, 450–470 nm illumination, riboflavin as reference
Text: The ROS generation rate was estimated using the spectrophotometric method, based on the absorption changes of 1,3-diphenylisobenzofuran (DPBF, Sigma Aldrich, Germany) in methanol solution. Irreversible oxidation of DPBF by singlet oxygen results in peroxide formation, and DPBF bleaching. When light of 400–450 nm was used as actinic, DPBF bleaching occurred without any photosensitizer (PS) in solution. Therefore, to study photosensitized ROS generation, we used a white MCWHLP1 LED (Thorlabs, USA) with filters to limit the radiation to the 450–470 nm range (5.5 mW/cm^2).
Spectrophotometric measurements were performed in a Qpod 2e (Quantum Northwest, USA) thermostated cuvette holder at 25 °C with magnetic stirring (500 rpm). Absorption spectra were recorded using a MayaPro spectrophotometer (Ocean Optics, USA) and a stabilized white light source with a SLS201L tungsten lamp (Thorlabs, USA). Illumination was uniform over the entire volume of the cuvette, to prevent artifacts associated with the diffusion of non-reacted components into the illuminated volume of the cuvette. In this case, the rate of irreversible bleaching of DPBF (412 nm) was the same under both continuous and pulsed irradiation with equal total irradiation time. Illumination was performed in a pulsed mode (Fig. S5A), with 1 s of illumination followed by 5 s of dark adaptation, during which the absorption spectrum of the PS-DPBF solution was recorded. Data processing was performed as previously described ([Gvozdev et al., 2020]).

CaCo-2 cells [2] = assay: Cytotoxicity assay (Cell Counting Kit-8) in CaCo-2 cells; format: cell-based, human; settings: up to 10 µM
Description: (§1) To determine the overall cytotoxicity of the tested compounds, Vero cells were cultured for 24 h in 96-well plates to form a confluent monolayer, and then were treated with the tested compounds at concentrations of 2 and 10 µM. After 48 h of cultivation in the dark at 37 °C under 5% CO2, the cell culture medium was aspirated. The potential cytotoxicity of the tested perylene derivatives was determined based on cell viability using Cell Counting Kit-8 (Dojindo Molecular Technologies, Munich, Germany) according to the manufacturer's instructions. The cell viabilities of compound-treated Vero cells were compared with those of control DMSO-treated cells. We also used the above-described protocol to assess the cytotoxicity of the selected perylene antivirals, at concentrations ranging from 0 to 10 µM, in CaCo-2 and CRFK cells.

[3] = ROS generation measurement with DMA trap in DMSO; format: physicochemical; settings: for ROS generation, DMA trap, under blue light: 465–480 nm, 30 mW/cm^2, 10 min
Description: ROS generation was also estimated using 9,10-dimethylanthracene (DMA), another specific fluorescent singlet oxygen trap, which forms nonfluorescent 9,10-dimethylanthracene endoperoxide after ROS-mediated DMA oxidation. Compounds (0, 0.1, 1, and 10 µM) in DMSO were mixed with DMA (0.5 µM), and these solutions were irradiated for 10 min at room temperature (RT) with light-emitting diodes (LED, 465–480 nm) having approximate power density of 30 mW/cm^2 (device description in Fig. S7). DMA fluorescence intensity was measured at ex/em wavelengths of 370/432 nm in the presence or absence of α-tocopherol (3 µg/mL) as an antioxidant. Singlet oxygen generation was accompanied by a decreased fluorescence signal of the DMA probe ([Zeng et al., 2020]).

[4] = system: feline infectious peritonitis virus (FIPV); format: cell-based, feline coronavirus (FCoV); settings: 0–10 µM
Vero cells [5] = assay: Light-induced cytotoxicity in Vero cells; format: cell-based, African Green Monkey; settings: 0–10 µM, 465–480 nm 10 min, then 24 h in the dark
Description: To determine the light-induced cytotoxicity of the tested compounds, Vero cells were cultured for 24 h in 96-well plates to form a confluent monolayer, and then were treated with the tested compounds at concentrations of 0 to 10 µM. Then, the compound-treated cells were irradiated for 10 min at RT with LEDs (465–480 nm) having an approximate power density of 30 mW/cm^2 (device description in Fig. S7). As a negative control, compound-treated cells were incubated for 10 min in the dark at RT. Subsequently, both irradiated and non-irradiated cell monolayers were incubated in the dark at 37 °C for 24 h. Then, the cell culture medium was aspirated and the potential cytotoxicity of the tested perylene derivatives was determined based on cell viability using Cell Counting Kit-8 (Dojindo Molecular Technologies, Munich, Germany) according to the manufacturer's instructions.

SARS-CoV-2 = assay: Photodynamic inactivation of SARS-CoV-2 virions; format: cell-based; settings: for antiviral activity after blue light irradiation of virus-compound mixture: 465–480 nm, 30 mW/cm^2, 10 min, then 60 min at 37 °C in the dark, plaque assay
Description: Virus in DMEM (titer of 10^5 PFU/mL) was mixed with the compounds (0–10 µM) in a microtiter plate, in triplicate, and irradiated for 10 min at RT with LEDs (465–480 nm) having an approximate power density of 30 mW/cm^2 (device description in supplement). As a negative control, virus was incubated for 10 min in the dark at RT. Subsequently, both irradiated and non-irradiated virus samples were incubated in the dark at 37 °C for 60 min. All manipulation with the samples before and after this incubation, i.e., mixing the compound with the virus, pipetting into a microtiter plate, etc., were performed in daylight. Viral titers were determined by plaque assays (performed also in daylight) and expressed as PFU/mL, as previously described ([Stefanik et al., 2021]). To eliminate the influence of daylight on compound activity, the whole experiment, including all manipulation with samples, was performed in a dark room under red light. The virus sample was mixed with the indicated compounds at concentrations from 0 to 10 μM or 100 μM, incubated for 60 min at 37 °C and virus viability was evaluated using a plaque assay (Fig. 9A).

[6] = system: SARS-CoV-2 (Wuhan strain); assay: Viral titer inhibition assay, SARS-CoV-2 in CaCo-2 cells; format: cell-based; settings: 0–10 µM
CRFK cells = assay: Cytotoxicity assay (Cell Counting Kit-8) in CRFK cells; format: cell-based, Felis catus; settings: up to 10 µM
Description: as §1

Vero cells [7] = assay: Cytotoxicity assay (Cell Counting Kit-8) in Vero cells; format: cell-based, African Green Monkey; settings: 10 µM, 48 h
Description: as §1

[8] = Spectrofluorometric analysis of interaction with liposomes; format: physicochemical
CaCo-2 cells [9] = assay: Cellular stress marker expression by RT-qPCR in CaCo-2 cells; format: cell-based, human
Description: RT-qPCR was performed to evaluate changes in the gene expression of cellular stress markers. […] Previous publications report the primer sequences and numbers of the Universal Probe Library (UPL; Roche Life Sciences, Germany) used for detection of ATF3, CDKN1A (p21), CYP1A1, DDIT3, HMOX1, HSPA1B (HSP70), and HSPA5 mRNAs ([Procházková et al., 2018]; [Šimečková et al., 2020]). […] TaqMan™ Gene Expression Assays (Thermo Fisher Scientific, Waltham, MA, USA) were used to determine the levels of FGF21 (Hs00173927_m1), GADD45A (Hs00169255_m1), GDF15 (Hs00171132_m1), and SRXN1 (Hs00607800_m1). The amplification was run in a 10-µL reaction mixture containing 1 µL of sample, using Kapa Probe Fast One-Step (Kapa Biosystems Pty, Cape Town, South Africa) on a LightCycler® 480 System (Roche Diagnostics, Czech Republic) using the previously published sequence ([Procházková et al., 2018]). Reference gene qPCR assays (Generi Biotech, Hradec Králové, Czech Republic) were used for the following housekeeping genes: human β2-Microglobulin (B2M; #3030), hydroxymethylbilane synthase (HMBS; #3032), and RNA polymerase II subunit A (POLR2A; #3035). We used an average of three reference gene Cp values to calculate the change in gene expression using the comparative threshold cycle method ([Schmittgen and Livak, 2008]).

## O=c1[nH]c(=O)n([C@@H]2O[C@H](CO)[C@@H](O)[C@@H]2O)cc1C#Cc1ccc2c3cccc4cccc(c5cccc1c52)c43 [Compound 1, 5-(perylen-3-yl)ethynyl-arabino-uridine]
[1]
  φROS (ROS generation quantum yield): 22.8 ± 0.4%

## O=c1[nH]c(=O)n([C@H]2C[C@H](O)[C@@H](CO)O2)cc1C#Cc1ccc2c3cccc4cccc(c5cccc1c52)c43 [Compound 2, 5-(perylen-3-yl)ethynyl-2′-deoxy-uridine]
CaCo-2 cells [2]
  tolerability by CaCo-2 cells: well-tolerated
[3]
  ROS generation, DMA trap, under blue light: significant bleaching
[3]; 10 min, dark or α-tocopherol (3 µg/mL)
  ROS generation, DMA trap, in the dark or with α-tocopherol: no/limited bleaching
[4]
  replication of FIPV in CRFK cells: potently suppressed the replication
[1]
  φROS (ROS generation quantum yield): 20.9 ± 0.2%
Vero cells [5]
  effect of blue light irradiation on cytotoxicity: dramatically increased
SARS-CoV-2; 100 µM, dark room, red light, 60 min at 37 °C
  antiviral effect under red light only: no antiviral effect
SARS-CoV-2
  antiviral activity after blue light irradiation of virus-compound mixture: low-nanomolar
SARS-CoV-2; up to 10 µM, dark room, red light, 60 min at 37 °C
  antiviral activity under red light only: completely disappeared
[6]
  anti-SARS-CoV-2 activity in CaCo-2 cells: sub-micromolar
CRFK cells
  tolerability by CRFK cells: well-tolerated

## O=c1[nH]cc(C#Cc2ccc3c4cccc5cccc(c6cccc2c63)c54)c(=O)[nH]1 [Compound 3]
[1]
  φROS (ROS generation quantum yield): 12.7 ± 1.2%

## Cn1cc(C#Cc2ccc3c4cccc5cccc(c6cccc2c63)c54)c(=O)n(C)c1=O [Compound 4]
[1]
  φROS (ROS generation quantum yield): 22.8 ± 0.4%
Vero cells [7]
  cell viability (in words): moderately decreased cell viability

## CC(C)(C)C(=O)OCn1c(=O)c(C#Cc2ccc3c4cccc5cccc(c6cccc2c63)c54)cn(CC(=O)O)c1=O [Compound 5]
[1]
  φROS (ROS generation quantum yield): 20.5 ± 0.2%
Vero cells [7]
  cell viability (in words): moderately decreased cell viability

## CC(C)(C)C(=O)OCn1c(=O)c(C#Cc2ccc3c4cccc5cccc(c6cccc2c63)c54)cn(CC(=O)NCCCCO)c1=O [Compound 6]
[1]
  φROS (ROS generation quantum yield): 18.2 ± 0.2%

## CC(C)(C)C(=O)OCn1c(=O)c(C#Cc2ccc3c4cccc5cccc(c6cccc2c63)c54)cn(CC(=O)NC[C@@H](O)C(C)(C)CO)c1=O [Compound 7]
[1]
  φROS (ROS generation quantum yield): 17.3 ± 0.2%

## CCCCNC(=O)Cn1cc(C#Cc2ccc3c4cccc5cccc(c6cccc2c63)c54)c(=O)n(COC(=O)C(C)(C)C)c1=O [Compound 8]
[1]
  φROS (ROS generation quantum yield): 17.6 ± 0.4%
Vero cells [5]
  effect of blue light irradiation on cytotoxicity: no effect
SARS-CoV-2
  antiviral activity after blue light irradiation of virus-compound mixture: significant increase of antiviral activity
Vero cells [7]
  cell viability (in words): moderately decreased cell viability

## CC(C)(C)C(=O)OCn1c(=O)c(C#Cc2ccc3c4cccc5cccc(c6cccc2c63)c54)cn(CC(=O)NCCO)c1=O [Compound 9]
[1]
  φROS (ROS generation quantum yield): 17.3 ± 0.2%

## CC(C)(C)C(=O)OCn1c(=O)c(C#Cc2ccc3c4cccc5cccc(c6cccc2c63)c54)cn(CC(=O)NCCCO)c1=O [Compound 10]
[1]
  φROS (ROS generation quantum yield): 16.5 ± 0.2%

## CC(C)(C)C(=O)OCn1c(=O)c(C#Cc2ccc3c4cccc5cccc(c6cccc2c63)c54)cn(CC(=O)NCCCCCO)c1=O [Compound 11]
[1]
  φROS (ROS generation quantum yield): 17.2 ± 0.4%

## CC(C)(C)C(=O)OCn1c(=O)c(C#Cc2ccc3c4cccc5cccc(c6cccc2c63)c54)cn(CC(=O)NCCCCCCO)c1=O [Compound 12]
[1]
  φROS (ROS generation quantum yield): 18.1 ± 0.4%
Vero cells [7]
  cell viability (in words): moderately decreased cell viability

## CC(=O)Nc1ccc(C#Cc2ccc3c4cccc5cccc(c6cccc2c63)c54)cc1 [Compound 15]
[1]
  φROS (ROS generation quantum yield): 23.1 ± 0.4%

## O=C(c1ccc(-c2ccc3c4cccc5cccc(c6cccc2c63)c54)s1)N(CCO)CCO [Compound 18]
[1]
  φROS (ROS generation quantum yield): 60.0 ± 2.4%

## CCCCNC(=O)c1ccc(-c2ccc3c4cccc5cccc(c6cccc2c63)c54)s1 [Compound 19]
[1]
  φROS (ROS generation quantum yield): 59.1 ± 1.2%
Vero cells [7]
  cell viability (in words): moderately decreased cell viability

## O=C(O)c1ccc2c3cccc4cccc(c5cccc1c52)c43 [Compound 20]
[3]
  ROS generation, DMA trap, under blue light: minimal photodynamic activities
[1]; methanol, 450–470 nm
  photodynamic activity (DPBF trap, in words): minimal
[8]
  solubility in water (in words): good solubility in water
[8]; 10 µM in PBS, EPC/Chol 70/30 mol% liposomes
  penetration into liposomal membranes (in words): no fluorescence enhancement
Vero cells [7]
  cell viability (in words): moderately decreased cell viability

## Clc1cc2c(cc1Cl)Oc1cc(Cl)c(Cl)cc1O2 [TCDD, reference compound]
CaCo-2 cells [9]; CaCo-2 cells, 10 nM
  increase of CYP1A1 mRNA level: up to 50 fold

## C/C=C(/C)C(=O)O[C@H]1C(C)=C2[C@H]([C@@H]1OC(=O)CCCCCCC)[C@@](C)(OC(C)=O)C[C@H](OC(=O)CCC)[C@@]1(O)[C@H]2OC(=O)[C@@]1(C)O [thapsigargin, reference compound]
CaCo-2 cells [9]; CaCo-2 cells, 5, 24 and 48 h
  expression of HSPA5, DDIT3, HSPA1B (HSP70), CDKN1A (p21), GADD45A: increased
